Test results: patent US7977364B2, “Indazoles, benzisoxazoles and benzisothiazoles and their use as estrogenic agents” (Laboratoire Thermamex, priority 2004, dated 2011)

Assays:
[1] = target: purified full-length recombinant human ERβ (Homo sapiens, UniProt Q92731); test: Estrogen receptor β competitive radiometric binding assay ([3H]-E2); conditions: for RBA (%) Mean ± S.E.M, ER β: ratio of IC50s of E2 and competitor, E2 set at 100%; for R (IC50s) αβ: ratio of the IC50 for ERα to the IC50 for ERβ; for selectivity for the human recombinant estrogen receptor β: in words
Experimental: (§1) Relative binding affinities (RBA) were determined by competitive radiometric binding assays, using purified full-length recombinant human ERα and ERβ (PanVera, Madison, Wis.). […] After shaking for a few seconds and centrifugation at 1500 g and 4° C. for 10 minutes, 150 μl/well of Optiphase ‘Super Mix’ scintillation liquid was mixed with 50 μl of supernatant of each sample and the radioactivity was measured in a MicroBeta counter (Wallac, Turku, Finland). Data were evaluated by a sigmoidal dose-response curve (Prism, GraphPad Software Inc.) to estimate the concentration of competitor at half-maximal specific binding (IC50). […] The selectivity for ERα and ERβ was obtained from the ratio R of the IC50 for ERα to the IC50 for ERβ for each test compound.

[2] = target: T1, purified full-length recombinant human ERα (Homo sapiens, UniProt P03372); test: Estrogen receptor α competitive radiometric binding assay ([3H]-E2); conditions: for RBA (%) Mean ± S.E.M, ER α: ratio of IC50s of E2 and competitor, E2 set at 100%
T1 sequence (P03372 1-595): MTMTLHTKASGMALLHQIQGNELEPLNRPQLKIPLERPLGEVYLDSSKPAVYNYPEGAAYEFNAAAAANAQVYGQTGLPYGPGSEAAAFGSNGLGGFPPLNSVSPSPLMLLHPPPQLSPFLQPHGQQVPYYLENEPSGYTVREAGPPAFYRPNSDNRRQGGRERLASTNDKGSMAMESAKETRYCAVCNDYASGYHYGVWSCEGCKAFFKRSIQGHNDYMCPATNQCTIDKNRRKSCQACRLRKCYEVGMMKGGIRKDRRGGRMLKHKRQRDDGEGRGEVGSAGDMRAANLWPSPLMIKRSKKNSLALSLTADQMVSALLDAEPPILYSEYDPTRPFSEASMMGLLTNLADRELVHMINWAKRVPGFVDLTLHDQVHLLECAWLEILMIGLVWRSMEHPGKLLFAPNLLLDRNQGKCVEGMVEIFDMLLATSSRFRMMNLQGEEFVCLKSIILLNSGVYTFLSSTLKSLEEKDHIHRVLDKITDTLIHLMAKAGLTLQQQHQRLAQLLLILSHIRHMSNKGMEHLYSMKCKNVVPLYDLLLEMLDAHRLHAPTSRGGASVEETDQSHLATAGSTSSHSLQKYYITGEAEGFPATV
Experimental: as §1

[3] = system: human breast cancer cell line MCF-7; test: Proliferative activity in vitro (ATP luminescence, 6 days); assay type: cell-based; conditions: Homo sapiens, MCF7, 144 h; for activity at 1 µM: MCF-7, 10^−6 M, read-out: Effect at 10^−6 M (% of control); for activity at 1 µM / activity at 0.01 µM: six days; for activity at 0.01 µM: MCF-7, 10^−8 M, read-out: Effect at 10^−8 M (% of control); for EC50: MCF-7, six days, read-out: Cell proliferation EC50 (nM) ± S.E.M
Experimental: The proliferative effect of the compounds of the invention was evaluated on human breast cancer cell line MCF-7 by measuring the number of viable cells after 6 days of treatment.
MCF-7 cells were routinely cultured as monolayers in Dulbecco's modified Eagle's medium (DMEM) containing 4 mM Glutamax and 4.5 g/l glucose and supplemented with 5% (v/v) decomplemented fetal calf serum (dFCS) and antibiotics.
Cells were plated at 2.10^6 cells/75 cm^2 flasks and incubated at 37° C. in a humidified atmosphere containing 5% CO2. They were passaged once weekly to maintain continuous exponential growth. Forty eight hours before the start of an experiment, near-confluent cells were changed to a phenol red free DMEM containing 5% steroid-stripped dFCS by dextran coated charcoal treatment (DCC-DMEM). On the day of the experiment, cells were harvested by brief exposure to trypsin and plated in DCC-DMEM in 96-well microplates at a density of 4.10^3 cells/well. The next day, the medium was renewed and test compounds, diluted appropriately in estrogen-free DMEM, were added and incubated for six days. […] At the end of the incubation period, cell proliferation was evaluated by quantitation of the cellular ATP content which signals the presence of metabolically active cells.
The assay, based on the ATP-dependent luciferase reaction, enables generation of a luminescent signal proportional to the amount of ATP present. As there is a linear relationship between the amount of ATP and the number of viable cells present in culture, the luminescent signal allowed to precisely evaluate cell proliferation (Crouch, S. P. M. et al. J. Immunol. Meth., 1993, 160, 81; Kangas, L. et al. Med. Biol. 1984, 62, 338; Petty, R. D. et al. J. Biolum. Chemilum. 1995, 10, 29).
In brief, the microplates were inverted to discard the culture medium and 100 μl of fresh medium was added into each well. The microplates were equilibrated at room temperature for approximately 30 minutes. 100 μl of luciferase reagent was added into each well and contents were mixed for 2 minutes to induce cell lysis. The plates were incubated at room temperature for 10 minutes to stabilize luminescence signal.
Luminescence was recorded using a microplate reader (Wallac, model 1420 Victor^2) and results were expressed as percentage of the control luminescence. Sigmoidal dose-response curves were plotted and EC50 values were calculated for each compound in order to evaluate their proliferative potency.

[4] = system: human endometrial adenocarcinoma Ishikawa cells; test: Estrogenic and anti-estrogenic activities in vitro: induction of alkaline phosphatase (APase) activity; assay type: cell-based; conditions: for EC50: Homo sapiens, Ishikawa, 96 h, compound alone, four days, ND = not detected, read-out: Estrogenic activity EC50 (nM) ± S.E.M; for estrogenic effect in alkaline phosphatase activity in the Ishikawa cell model: in words
Experimental: The estrogenic and anti-estrogenic potentials of new compounds were evaluated using the induction of alkaline phosphatase (APase) activity, an estrogen specific response in human endometrial adenocarcinoma Ishikawa cells (Botella J., J Steroid Biochem Molec Biol, 1995, 55: 77-84; Littlefield et al., Endocrinology, 1990, 127: 2757-2762).
Ishikawa cells were routinely grown as monolayers in Dulbecco's Modified Eagle's medium (DMEM) containing 4 mM Glutamax I and supplemented with 10% of decomplemented fetal calf serum (dFCS) and antibiotics. They were maintained in a humidified atmosphere of 5% CO2 and 95% air, at 37±0.1° C. Stocks were performed once a week to maintain continuous exponential growth.
For studies, Ishikawa cells were plated into 96-well microplates. The next day, the medium was changed to a phenol red-free DMEM containing 5% dFCS stripped of endogenous estrogens by dextran coated charcoal treatment.
At the end of the incubation period, APase activity was assayed by a method involving the hydrolysis of p-nitrophenyl phosphate to p-nitrophenol at pH 9.8 and spectrophotometric determination of the product at 405 nm.
In brief, the microplates were first rinsed twice with cold phosphate buffered solution and then placed at −80° C. for at least 15 minutes. After thawing at room temperature for 5-10 minutes, the plates were put on ice and 50 μl ice-cold solution containing 5 mM p-nitrophenyl phosphate was added to each well. The plates were warmed to room temperature to allow for the development of the enzymatic reaction (t0). After a 15 to 60 minute incubation period, the intensity of the yellow color generated by the production of p-nitrophenol was measured into each well at 405 nm using a microplate reader (Wallac, model 1420 Victor^2). […] Sigmoidal dose-response curves were plotted and EC50 (estrogenic effect) and IC50 (anti-estrogenic effect) values were calculated for each compound.

[5] = system: Prepubescent female rats; test: Estrogenic / uterotrophic activity in vivo (uterus wet weight); set-up: species or system rat; conditions: Rattus norvegicus, po, 72 h, Table 4; orally 3 mg/rat/day for 3 days; read-out: % stimulation vs vehicle (uterus weight)
Experimental: Prepubescent female rats were orally treated at 3 mg/rat/day for 3 days. On the day following the last treatment, uteri were removed and wet weights were recorded.
The results are expressed as % of stimulation of uterus weight in comparison with vehicles. […]
Prepubescent female rats were orally treated with 0.3; 1; 3 or 10 mg/rat/day for 3 days. On the day following the last treatment, uteri were removed and wet weights were recorded.

Sequence of purified full-length recombinant human ERβ (Q92731 whole entry): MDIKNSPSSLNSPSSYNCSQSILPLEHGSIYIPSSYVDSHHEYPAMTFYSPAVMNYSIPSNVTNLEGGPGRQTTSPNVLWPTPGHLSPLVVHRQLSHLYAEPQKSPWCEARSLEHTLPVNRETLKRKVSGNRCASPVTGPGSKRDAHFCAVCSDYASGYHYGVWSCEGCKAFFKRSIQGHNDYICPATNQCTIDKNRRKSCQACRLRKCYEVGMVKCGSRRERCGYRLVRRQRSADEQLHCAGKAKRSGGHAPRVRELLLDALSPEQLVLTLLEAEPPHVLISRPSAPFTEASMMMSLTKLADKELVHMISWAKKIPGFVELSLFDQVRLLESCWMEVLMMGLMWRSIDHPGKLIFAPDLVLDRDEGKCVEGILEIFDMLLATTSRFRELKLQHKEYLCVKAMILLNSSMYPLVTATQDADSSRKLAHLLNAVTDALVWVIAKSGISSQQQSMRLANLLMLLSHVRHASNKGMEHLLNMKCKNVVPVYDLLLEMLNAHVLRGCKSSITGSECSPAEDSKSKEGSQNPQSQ

| Compound | IC50 [1] [nM] | RBA (%) Mean ± S.E.M, ER β [1] [%] | R (IC50s) αβ [1] | IC50 [2] [nM] | RBA (%) Mean ± S.E.M, ER α [2] [%] | EC50 [3] [nM] | EC50 [4] [nM] | melting point [°C] | selectivity for the human recombinant estrogen receptor β [1] | activity at 1 µM [3] [%] | activity at 0.01 µM [3] [%] | change in vivo at 3 mg [5] [%] | estrogenic effect in alkaline phosphatase activity in the Ishikawa cell model [4] |
| --- | --- | --- | --- | --- | --- | --- | --- | --- | --- | --- | --- | --- | --- |
| NS(=O)(=O)n1nc(C2CCCCC2)c2ccc(O)cc21 [Ex 40, 3-cyclohexyl-6-hydroxy-1H-indazole-1-sulfonamide] | 188 ± 34 | 1.0 ± 0.2 | 7.9 | 1480 ± 1180 | 0.1 ± 0.02 | 11.5 ± 2.8 | 132 ± 4.7 | 162 | – | 152 | 107 | 41 | – |
| Oc1ccc(Cc2noc3cc(O)ccc23)cc1 [Ex 73, 3-(4-hydroxybenzyl)-1,2-benzisoxazol-6-ol] | 485 ± 158 | 1.0 ± 0.3 | 6.0 | 2910 ± 318 | 0.1 ± 0.0 | 365 ± 126 | – | – | marked selectivity | 134 | 94.2 | 52 | weak estrogenic effect |
| N#CC(Cc1ccc(O)cc1)c1noc2cc(O)ccc12 (stereo not drawn) [Ex 80, 2-(6-hydroxy-1,2-benzisoxazol-3-yl)-3-(4-hydroxyphenyl) propanenitrile] | 7.5 ± 0.7 | 43.0 ± 7.8 | 9.0 | 67.5 ± 5 | 3.4 ± 0.4 | 45.2 ± 25.6 | 147 ± 39.9 | – | – | 147 | 110 | 70 | – |
| N#CC(Cc1ccc(F)cc1)c1noc2cc(O)ccc12 (stereo not drawn) [Ex 84, 2-(6-hydroxy-1,2-benzisoxazol-3-yl)-3-(4-fluorophenyl) propanenitrile] | 123 ± 25.9 | 2.5 ± 0.4 | 18.7 | 2300 ± 446 | 0.1 ± 0.03 | 77.9 ± 4.1 | 322 ± 20 | 152 | marked selectivity | 286 | 97 | 24 | weak estrogenic effect |
| N#CC(Cc1ccc(O)c(O)c1)c1noc2cc(O)ccc12 (stereo not drawn) [Ex 86, 2-(6-hydroxy-1,2-benzisoxazol-3-yl)-3-(3,4-dihydroxyphenyl) propanenitrile] | 135 ± 31 | 2.4 ± 0.4 | 14.1 | 1890 ± 365 | 0.2 ± 0.03 | 466 ± 34 | – | 154 | marked selectivity | 139 | 85.6 | 25 | weak estrogenic effect |

Second part, led by results:

| IC50 [1] [nM] | RBA (%) Mean ± S.E.M, ER β [1] [%] | R (IC50s) αβ [1] | IC50 [2] [nM] | RBA (%) Mean ± S.E.M, ER α [2] [%] | EC50 [3] [nM] | EC50 [4] [nM] | melting point [°C] | selectivity for the human recombinant estrogen receptor β [1] | Compound | activity at 1 µM [3] [%] | activity at 0.01 µM [3] [%] | change in vivo at 3 mg [5] [%] | estrogenic effect in alkaline phosphatase activity in the Ishikawa cell model [4] |
| --- | --- | --- | --- | --- | --- | --- | --- | --- | --- | --- | --- | --- | --- |
| 10.2 ± 0.9 | 24.6 ± 4.3 | 15.6 | 159 ± 23.7 | 1.2 ± 0.2 | 18.5 ± 1.8 | 136.3 ± 1.2 | 147 | – | Oc1ccc2c(C3CCCCC3)n[nH]c2c1 [Ex 24, 3-cyclohexyl-1H-indazol-6-ol] | 143 | 89.9 | 101 | – |
| 20.2 ± 4.2 | 13.2 ± 3.1 | 3.7 | 75.3 ± 5.4 | 2.5 ± 0.6 | 27.6 ± 2 | 51.7 ± 6.2 | 156 | – | Oc1ccc2c(C3CCCCCC3)noc2c1 [Ex 65, 3-cycloheptyl-1,2-benzisoxazol-6-ol] | 260 | 123 | 84 | – |
| 44.6 ± 7.7 | 9.4 ± 3.1 | 5.8 | 260 ± 40.1 | 1.1 ± 0.2 | 25.4 ± 4 | 221 ± 14 | 181 | marked selectivity | Oc1ccc2c(C3CCCCC3)noc2c1 [Ex 66, 3-cyclohexyl-1,2-benzisoxazol-6-ol] | 149 | 100 | 31 | weak estrogenic effect |
| 37.8 ± 5.4 | 5.1 ± 0.8 | 2.3 | 88.6 ± 11.7 | 1.3 ± 0.2 | 16.1 ± 2.6 | 124 ± 8.9 | 190 | marked selectivity | Oc1ccc2c(C3CCCCC3)nsc2c1 [Ex 93, 3-cyclohexyl-1,2-benzisothiazol-6-ol] | 156 | 116 | 88 | weak estrogenic effect |
